Experimental data: PubChem BioAssay AID330 (DTP/NCI, 2004)
Where “and” joins values, the source holds several entries; their conditions need not be identical. Identical values can stand only once. Toxic doses and inconclusive results are not listed. Rule for the calls: active = survival T/C of 150% or more; inactive = T/C below 125% in these data. Square brackets hold non-standard residues; d marks the D form. Peptide text beside a SMILES is read from it. ξ: configuration not given here. ξY = NC(Cc1ccc(O)cc1)C(=O)O

Test system: P388 leukemia ip, CD2F1 mice, survival T/C
Test: NCI In Vivo Anticancer Drug Screen. Data for tumor model P388 Leukemia (intraperitoneal) in CD2F1 (CDF1) mice
Details: endpoint: median survival time, higher = longer survival
Method in brief: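 Mice carrying the transplanted tumor received test compound or vehicle. Survival was recorded in each group, and the value is the treated-group measurement divided by that of the vehicle-treated control group.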

[1] = dose: 50.0 mg/kg/injection, schedule: Q01DX009 (ip), vehicle: saline
[2] = dose: 100.0 mg/kg/injection, schedule: Q01DX009 (ip), vehicle: saline
[3] = dose: 100.0 mg/kg/injection, schedule: Q04DX003 (ip), vehicle: saline
[4] = dose: 50.0 mg/kg/injection, schedule: Q01DX009 (ip), vehicle: saline with Tween-80
[5] = dose: 100.0 mg/kg/injection, schedule: Q01DX009 (ip), vehicle: saline with Tween-80
[6] = dose: 200.0 mg/kg/injection, schedule: Q01DX009 (ip), vehicle: saline with Tween-80
[7] = dose: 200.0 mg/kg/injection, schedule: Q01DX009 (ip), vehicle: saline
[8] = dose: 25.0 mg/kg/injection, schedule: Q01DX009 (ip), vehicle: water
[9] = dose: 50.0 mg/kg/injection, schedule: Q01DX009 (ip), vehicle: water
[10] = dose: 100.0 mg/kg/injection, schedule: Q01DX009 (ip), vehicle: water
[11] = dose: 200.0 mg/kg/injection, schedule: Q01DX009 (ip), vehicle: water
[12] = dose: 400.0 mg/kg/injection, schedule: Q01DX009 (ip), vehicle: water
[13] = dose: 100.0 mg/kg/injection, schedule: Q04DX002 (ip), vehicle: saline with Tween-80
[14] = dose: 50.0 mg/kg/injection, schedule: Q01DX005 (ip), vehicle: saline with Tween-80
[15] = dose: 100.0 mg/kg/injection, schedule: Q01DX005 (ip), vehicle: saline with Tween-80
[16] = dose: 200.0 mg/kg/injection, schedule: Q01DX005 (ip), vehicle: saline with Tween-80
[17] = dose: 60.0 mg/kg/injection, schedule: Q01DX005 (ip), vehicle: saline with Tween-80
[18] = dose: 120.0 mg/kg/injection, schedule: Q01DX005 (ip), vehicle: saline with Tween-80
[19] = dose: 240.0 mg/kg/injection, schedule: Q01DX005 (ip), vehicle: saline with Tween-80
[20] = dose: 50.0 mg/kg/injection, schedule: Q01DX009 (ip), vehicle: other
[21] = dose: 100.0 mg/kg/injection, schedule: Q01DX009 (ip), vehicle: other

Measured: T/C

Cn1cccc/c1=N\N
inactive: dose: 100.0 mg/kg/injection, schedule: Q04DX002 (ip), vehicle: saline 100 % of control | dose: 200.0 mg/kg/injection, schedule: Q04DX002 (ip), vehicle: saline 99 % of control

CC1CCC(C(C)(C)c2ccccc2)C(OC(=O)C2C3CCC=C3C3CC(C)(C)CC32)C1 (stereo unspecified)
inactive: dose: 21.25 mg/kg/injection, schedule: Q01DX005 (ip), vehicle: saline with Tween-80 99 % of control | dose: 42.5 mg/kg/injection, schedule: Q01DX005 (ip), vehicle: saline with Tween-80 96 % of control | dose: 85.0 mg/kg/injection, schedule: Q01DX005 (ip), vehicle: saline with Tween-80 100 % of control

NC(N)=N/N=C/C(Cl)Cl
inactive: dose: 25.0 mg/kg/injection, schedule: Q01DX009 (ip), vehicle: saline 109 % of control | dose: 25.0 mg/kg/injection, schedule: Q04DX003 (ip), vehicle: saline 100 % of control | [1] 100 % of control | dose: 50.0 mg/kg/injection, schedule: Q04DX003 (ip), vehicle: saline 100 % of control | [2] 118 % of control | [3] 100 % of control and 95 % of control

CC(CCC1(O)OC2CC3C4CC=C5CC(OC6OC(CO)C(OC7OC(C)C(O)C(O)C7O)C(O)C6O)CCC5(C)C4CCC3(C)C2C1(C)C)COC1OC(C)C(O)C(O)C1O (stereo unspecified)
inactive: dose: 2.5 mg/kg/injection, schedule: Q01DX005 (ip), vehicle: Klucel (hydroxypropylcellulose) (HPC) 100 % of control | dose: 5.0 mg/kg/injection, schedule: Q01DX005 (ip), vehicle: Klucel (hydroxypropylcellulose) (HPC) 88 % of control

O=C1CCN(Cc2ccccc2)C(=O)N1
inactive: [4] 100 % of control | [5] 105 % of control | [6] 100 % of control

COP(=O)(O)OC.[Th]
inactive: [4] 118 % of control | [5] 88 % of control | [6] 90 % of control

Cc1cc2c3ccc(C)[n+](C)c3ccc2n1C
inactive: dose: 1.25 mg/kg/injection, schedule: Q01DX010 (ip), vehicle: saline 100 % of control | dose: 2.5 mg/kg/injection, schedule: Q01DX010 (ip), vehicle: saline 105 % of control

Oc1ccccc1C=Nc1ccc(Cl)cn1
inactive: [1] 99 % of control | [2] 100 % of control | [7] 107 % of control

NCC(=O)NC(Cc1ccc(O)cc1)C(=O)O (stereo unspecified) (H-Gly-[ξY]-OH)
inactive: [2] 113 % of control | [3] 98 % of control | [7] 101 % of control | dose: 200.0 mg/kg/injection, schedule: Q04DX003 (ip), vehicle: saline 105 % of control | dose: 400.0 mg/kg/injection, schedule: Q01DX009 (ip), vehicle: saline 105 % of control | dose: 400.0 mg/kg/injection, schedule: Q04DX003 (ip), vehicle: saline 104 % of control

CCOC(=O)C(C)Oc1ccc(Cl)cc1 (stereo unspecified)
inactive: [8] 99 % of control | [9] 102 % of control | [10] 102 % of control | [11] 98 % of control | [12] 107 % of control

O=c1[nH]cc(Br)c2ccccc12
inactive: dose: 25.0 mg/kg/injection, schedule: Q04DX002 (ip), vehicle: saline with Tween-80 92 % of control | dose: 50.0 mg/kg/injection, schedule: Q04DX002 (ip), vehicle: saline with Tween-80 93 % of control | [13] 96 % of control

OCC1CCCC1CO (stereo unspecified)
inactive: [14] 106 % of control and 101 % of control | [15] 105 % of control and 101 % of control | [16] 100 % of control and 114 % of control

c1ccc(Nc2ccc(CN3CCCCC3)cc2)cc1
inactive: dose: 60.0 mg/kg/injection, schedule: Q01DX005 (ip), vehicle: Klucel (hydroxypropylcellulose) (HPC) 93 % of control | dose: 120.0 mg/kg/injection, schedule: Q01DX005 (ip), vehicle: Klucel (hydroxypropylcellulose) (HPC) 99 % of control | dose: 240.0 mg/kg/injection, schedule: Q01DX005 (ip), vehicle: Klucel (hydroxypropylcellulose) (HPC) 87 % of control

C#CCOC(=O)C12CCC(C)(C)CC1C1=CCC3C4(C)CCC(O)C(C)(CO)C4CCC3(C)C1(C)CC2 (stereo unspecified)
inactive: dose: 12.5 mg/kg/injection, schedule: Q01DX005 (ip), vehicle: saline with Tween-80 101 % of control | dose: 25.0 mg/kg/injection, schedule: Q01DX005 (ip), vehicle: saline with Tween-80 94 % of control

CC(C)c1ccc2nc3ccc(C(=O)NCCN4CCN(c5ccccc5)CC4)cn3c(=O)c2c1
inactive: [17] 97 % of control | [18] 89 % of control | [19] 92 % of control

COC(=O)C1(C)CCCC1=O (stereo unspecified)
inactive: [20] 96 % of control | [21] 95 % of control | dose: 200.0 mg/kg/injection, schedule: Q01DX009 (ip), vehicle: other 99 % of control

COC1=C(C)C(=O)c2[nH]ccc2C1=O
inactive: [13] 102 % of control

CN1C(=O)N(C)C2(C(=O)N(C)C(=S)N2C)N(C)C1=O
inactive: [17] 95 % of control | [18] 103 % of control | [19] 102 % of control

O=c1[nH]cnc2[nH]ccc12
inactive: [4] 106 % of control

[Fe]=[Se]
inactive: [17] 96 % of control | [18] 86 % of control | [19] 107 % of control

CCOC(=O)c1c(-c2ccccc2)nn(CC(N)=O)c1CO
inactive: [14] 100 % of control | [15] 105 % of control | [16] 103 % of control

CCCNNC(=O)c1ccncc1
inactive: [14] 100 % of control | [15] 96 % of control | [16] 105 % of control

O=C1NN2CCCN=C2c2ccncc21
inactive: dose: 60.0 mg/kg/injection, schedule: Q01DX005 (ip), vehicle: saline 98 % of control | dose: 120.0 mg/kg/injection, schedule: Q01DX005 (ip), vehicle: saline 97 % of control | dose: 240.0 mg/kg/injection, schedule: Q01DX005 (ip), vehicle: saline 93 % of control

Oc1ccc2ccccc2c1/C=N/c1nc(-c2ccc(Cl)cc2)cs1
inactive: dose: 100.0 mg/kg/injection, schedule: Q01DX001 (ip), vehicle: saline with Tween-80 89 % of control | dose: 200.0 mg/kg/injection, schedule: Q01DX001 (ip), vehicle: saline with Tween-80 90 % of control | dose: 400.0 mg/kg/injection, schedule: Q01DX001 (ip), vehicle: saline with Tween-80 92 % of control

CCOC(=O)C1C/C(=N\OS(=O)(=O)c2ccc(C)cc2)c2ccc(OC)c(OC)c2C1 (stereo unspecified)
inactive: dose: 25.0 mg/kg/injection, schedule: Q01DX009 (ip), vehicle: other 92 % of control | [20] 89 % of control | [21] 87 % of control | dose: 400.0 mg/kg/injection, schedule: Q01DX009 (ip), vehicle: other 97 % of control

O=Cc1ccc(N=Nc2c(S(=O)(=O)O)cc3cc(S(=O)(=O)O)cc(O)c3c2O)cc1
inactive: [4] 90 % of control | [5] 90 % of control | [6] 100 % of control

O=C1C(=C2C=CN(CCCN3CCCCC3)C=C2)C(=O)c2ccccc21
inactive: dose: 50.0 mg/kg/injection, schedule: Q01DX009 (ip), vehicle: Klucel (hydroxypropylcellulose) (HPC) 91 % of control | dose: 100.0 mg/kg/injection, schedule: Q01DX009 (ip), vehicle: Klucel (hydroxypropylcellulose) (HPC) 102 % of control | dose: 200.0 mg/kg/injection, schedule: Q01DX009 (ip), vehicle: Klucel (hydroxypropylcellulose) (HPC) 102 % of control

CCN(CC)CCOc1ccc(C2N3Cc4ccccc4CN2c2ccccc23)cc1
inactive: dose: 100.0 mg/kg/injection, schedule: Q01DX001 (ip), vehicle: Klucel (hydroxypropylcellulose) (HPC) 99 % of control | dose: 200.0 mg/kg/injection, schedule: Q01DX001 (ip), vehicle: Klucel (hydroxypropylcellulose) (HPC) 108 % of control | dose: 400.0 mg/kg/injection, schedule: Q01DX001 (ip), vehicle: Klucel (hydroxypropylcellulose) (HPC) 99 % of control

CC(N)C(=O)NC1C(O)OC(CO)C(O)C1O (stereo unspecified)
inactive: [8] 101 % of control | [9] 104 % of control | [10] 111 % of control | [11] 104 % of control | [12] 101 % of control | dose: 800.0 mg/kg/injection, schedule: Q01DX009 (ip), vehicle: water 93 % of control
